Where a name gives a salt, the structure may show the parent alone. Blank lines part the entries; values can stand above or below the molecule they belong to.
Columns and labels:
Assay in all cases: MTT cell viability assay
Format in all cases: cell-based
[1] = system: A172; conditions: Homo sapiens
Text: (§1) All of the tested cell lines were acquired from the American Type Culture Collection (ATCC, Manassas, VA, USA), including human breast cancer cell lines (MCF-7, MDA-MB-231), human gastric cancer cell line (AGS), human colorectal cancer cell lines (HT-29, DLD-1), human glioblastoma cancer cell lines (T98G, A172), mouse astrocyte type I clone (C8-D1A), human normal epithelial breast cells (MCF-10A) and primary dermal fibroblast (HDFa). Such cell lines as AGS, MCF-7, MDA-MB-231, A172, T98G, C8-D1A, and primary dermal fibroblast (HDFa) were cultured in complete medium–DMEM (Corning, Kennebunk, ME, USA). RPMI-1640 (ATCC, Manassas, VA, USA) was used for the DLD-1 cell line, and McCoy’s 5A (PAN-Biotech, Aidenbach, Germany) for the HT-29 cell line. To all utilized media additionally was added 10% fetal bovine serum (FBS) (Eurx, Gdansk, Poland) and 1% penicillin and streptomycin solution (Corning, Kennebunk, ME, USA). MCF-10A cells were incubated in MEGM (Mammary Epithelial Cell Growth Medium) BulletKit supplemented with penicillin/streptomycin cocktail and 5% horse serum. All cells were cultured at 37 °C in an atmosphere with 5% CO₂ in tissue culture dishes (Sarstedt, Numbrecht, Germany). For experiments, cells were washed with phosphate-buffered saline (PBS) (Corning, Kennebunk, ME, USA) followed by the addition of 0.05% trypsin with 0.02% EDTA (Corning, Kennebunk, ME, USA). Scepter 3.0 cell counter (Merck Millipore, Burlington, MA, USA) was applied before each seeding to calculate the number of cells. For the next analyses, cells were reseeded in 6-well plates, 24-well plates, and 96-well plates.
(§2) MTT (3-(4,5-dimethylthiazol-2-yl)-2,5-diphenyltetrazolium bromide) assay method was utilized to analyze compound effects on cell viability. All cell lines were seeded in 96-well plates with 1 × 10^4 cells per well. After 24 h, cells were treated with the tested compounds and reference drug at concentrations of 0.1, 1, 2.5, 5, 10, and 20 µM for 24, 48, or 72 h. Next, a solution of 3-(4,5-dimethyl-2-thiazolyl)-2,5-diphenyl-2H-tetrazolium bromide (Sigma-Aldrich, St. Louis, MO, USA) in PBS with a concentration of 5 mg/mL was prepared. After the incubation with tested compounds, 10 µL of the prepared MTT solution was applied to each well, followed by 2 h of incubation at 37 °C. Next, cells underwent lysis by adding 100 µL of pre-prepared lysing buffer (containing 25 mM HCl, 2% acetic acid, 3% DMF, and 5% SDS, with a pH of 4.7). The absorbance was measured using a UV-VIS Helios Gamma (Unicam/ThermoFisher Scientific Inc., Cleveland, OH, USA) at 570 nm wavelength. The cells incubated with vehicle substance (0.1% DMSO) were taken as controls.
(§3) To investigate the cytotoxic potential of the newly synthesized compounds, a comprehensive assessment was conducted utilizing the MTT assay. This assay was applied on a diverse panel of cell lines, such as human breast cancer cell lines (MCF-7 and MDA-MB-231), human gastric cancer cell line (AGS), human colorectal cancer cell lines (HT-29 and DLD-1), human glioblastoma cancer cell lines (T98G and A172), mouse astrocyte type I clone cells (C8-D1A), primary dermal fibroblast (HDFa), and human normal breast cells (MCF-10A) for 24, 48, and/or 72 h.

[2] = system: C8-D1A; conditions: Mus musculus, normal cells
Text: as §1, §2, §3

[3] = system: DLD-1; conditions: Homo sapiens
Text: as §1, §2, §3

[4] = system: MDA-MB-231; conditions: Homo sapiens
Text: as §1, §2, §3

[5] = system: MCF-10A; conditions: Homo sapiens, normal cells
Text: as §1, §2, §3

[6] = system: MCF-7; conditions: Homo sapiens
Text: as §1, §2, §3

[7] = system: AGS; conditions: Homo sapiens
Text: as §1, §2, §3

[8] = system: HT-29; conditions: Homo sapiens
Text: as §1, §2, §3

[9] = system: Primary Dermal Fibroblast (HDFa); conditions: Homo sapiens, normal cells
Text: as §1, §2, §3

[10] = system: T98G; conditions: Homo sapiens
Text: as §1, §2, §3

IC50 ([3]; DLD-1 24 h): 18.2 ± 1.24 µM
IC50 ([3]; DLD-1 48 h): 3.86 ± 0.11 µM
IC50 ([4]; MDA-MB-231 24 h): > 20 µM
IC50 ([4]; MDA-MB-231 48 h): > 20 µM
IC50 ([4]; MDA-MB-231 72 h): > 20 µM
IC50 ([6]; MCF7, MCF-7 24 h): 6.93 ± 0.13 µM
IC50 ([6]; MCF7, MCF-7 48 h): 7.93 ± 0.1 µM
IC50 ([6]; MCF7, MCF-7 72 h): 2.43 ± 0.12 µM
IC50 ([7]; AGS 24 h): > 20 µM
IC50 ([7]; AGS 48 h): 2.24 ± 0.31 µM
IC50 ([8]; HT-29 24 h): > 20 µM
IC50 ([8]; HT-29 48 h): 4.58 ± 0.46 µM
SMILES: COc1ccc(C=C2SC(Nc3cc(OC)c(OC)c(OC)c3)=NC2=O)cc1 [Les-6381, 5-(4-Methoxybenzylidene)-2-((3,4,5-trimethoxyphenyl)amino)thiazol-4(5H)-one]
IC50 ([1]; A 172, A172 24 h): > 20 µM
IC50 ([1]; A 172, A172 48 h): 8.65 ± 0.52 µM
IC50 ([5]; MCF-10A 24 h): 8.37 ± 0.11 µM
IC50 ([5]; MCF-10A 48 h): 0.97 ± 0.04 µM
IC50 ([5]; MCF-10A 72 h): 2.03 ± 0.1 µM
IC50 ([9]; HDFa 24 h): > 20 µM
IC50 ([9]; HDFa 48 h): > 20 µM
IC50 ([9]; HDFa 72 h): > 20 µM
IC50 ([10]; T98G 24 h): 13.1 ± 0.24 µM
IC50 ([10]; T98G 48 h): 4.09 ± 0.1 µM

IC50 ([3]; DLD-1 24 h): > 20 µM
IC50 ([3]; DLD-1 48 h): > 20 µM
IC50 ([4]; MDA-MB-231 24 h): > 20 µM
IC50 ([4]; MDA-MB-231 48 h): > 20 µM
IC50 ([4]; MDA-MB-231 72 h): > 20 µM
IC50 ([6]; MCF7, MCF-7 24 h): > 20 µM
IC50 ([6]; MCF7, MCF-7 48 h): > 20 µM
IC50 ([6]; MCF7, MCF-7 72 h): > 20 µM
IC50 ([7]; AGS 24 h): > 20 µM
IC50 ([7]; AGS 48 h): 14.5 ± 0.57 µM
IC50 ([8]; HT-29 24 h): > 20 µM
IC50 ([8]; HT-29 48 h): 4.41 ± 0.35 µM
SMILES: COc1cc(NC2=NC(=O)C(=Cc3cccs3)S2)cc(OC)c1OC [Les-6423, 5-(Thiophen-2-ylmethylene)-2-((3,4,5-trimethoxyphenyl)amino)thiazol-4(5H)-one]
IC50 ([1]; A 172, A172 24 h): > 20 µM
IC50 ([1]; A 172, A172 48 h): > 20 µM
IC50 ([9]; HDFa 24 h): > 20 µM
IC50 ([9]; HDFa 48 h): > 20 µM
IC50 ([9]; HDFa 72 h): > 20 µM
IC50 ([10]; T98G 24 h): > 20 µM
IC50 ([10]; T98G 48 h): > 20 µM

Second part, the molecule before the results:

SMILES: COc1cccc2c1C(=O)c1c(O)c3c(c(O)c1C2=O)C[C@@](O)(C(=O)CO)C[C@@H]3O[C@H]1C[C@H](N)[C@H](O)[C@H](C)O1 [DOX, Doxorubicin hydrochloride, reference compound]
IC50 ([1]; A 172, A172 24 h): > 20 µM
IC50 ([1]; A 172, A172 48 h): 12.9 ± 0.89 µM
IC50 ([2]; C8-D1A 24 h): > 20 µM
IC50 ([2]; C8-D1A 48 h): 0.25 ± 0.01 µM
IC50 ([3]; DLD-1 24 h): 4.69 ± 0.48 µM
IC50 ([3]; DLD-1 48 h): 0.6 ± 0.08 µM
IC50 ([4]; MDA-MB-231 24 h): > 20 µM
IC50 ([4]; MDA-MB-231 48 h): 3.91 ± 0.22 µM
IC50 ([4]; MDA-MB-231 72 h): 2.37 ± 0.15 µM
IC50 ([5]; MCF-10A 24 h): > 20 µM
IC50 ([5]; MCF-10A 48 h): 0.16 ± 0.01 µM
IC50 ([5]; MCF-10A 72 h): 0.11 ± 0.01 µM
IC50 ([6]; MCF7, MCF-7 24 h): 2.46 ± 0.54 µM
IC50 ([6]; MCF7, MCF-7 48 h): 0.81 ± 0.01 µM
IC50 ([6]; MCF7, MCF-7 72 h): 0.26 ± 0.03 µM
IC50 ([7]; AGS 24 h): > 20 µM
IC50 ([7]; AGS 48 h): 0.39 ± 0.01 µM
IC50 ([8]; HT-29 24 h): > 20 µM
IC50 ([8]; HT-29 48 h): 0.3 ± 0.04 µM
IC50 ([9]; HDFa 24 h): > 20 µM
IC50 ([9]; HDFa 48 h): > 20 µM
IC50 ([9]; HDFa 72 h): 0.99 ± 0.03 µM
IC50 ([10]; T98G 24 h): > 20 µM
IC50 ([10]; T98G 48 h): > 20 µM

SMILES: COc1cc(NC2=NC(=O)C(=Cc3ccc4cc[nH]c4c3)S2)cc(OC)c1OC [Les-6416, 5-((1H-Indol-6-yl)methylene)-2-((3,4,5-trimethoxyphenyl)amino)thiazol-4(5H)-one]
IC50 ([1]; A 172, A172 24 h): > 20 µM
IC50 ([1]; A 172, A172 48 h): > 20 µM
IC50 ([2]; C8-D1A 24 h): 14.3 ± 1.52 µM
IC50 ([2]; C8-D1A 48 h): 7.1 ± 0.73 µM
IC50 ([3]; DLD-1 24 h): > 20 µM
IC50 ([3]; DLD-1 48 h): > 20 µM
IC50 ([4]; MDA-MB-231 24 h): > 20 µM
IC50 ([4]; MDA-MB-231 48 h): > 20 µM
IC50 ([4]; MDA-MB-231 72 h): > 20 µM
IC50 ([5]; MCF-10A 24 h): > 20 µM
IC50 ([5]; MCF-10A 48 h): 7.99 ± 0.48 µM
IC50 ([5]; MCF-10A 72 h): 7.25 ± 0.3 µM
IC50 ([6]; MCF7, MCF-7 24 h): 4.7 ± 0.06 µM
IC50 ([6]; MCF7, MCF-7 48 h): 2.09 ± 0.05 µM
IC50 ([6]; MCF7, MCF-7 72 h): 1.29 ± 0.01 µM
IC50 ([7]; AGS 24 h): > 20 µM
IC50 ([7]; AGS 48 h): 3.45 ± 0.2 µM
IC50 ([8]; HT-29 24 h): > 20 µM
IC50 ([8]; HT-29 48 h): 6.58 ± 0.37 µM
IC50 ([9]; HDFa 24 h): > 20 µM
IC50 ([9]; HDFa 48 h): > 20 µM
IC50 ([9]; HDFa 72 h): > 20 µM
IC50 ([10]; T98G 24 h): > 20 µM
IC50 ([10]; T98G 48 h): > 20 µM

SMILES: COc1cc(NC2=NC(=O)C(=Cc3c[nH]c4ccccc34)S2)cc(OC)c1OC [Les-6418, 5-((1H-Indol-3-yl)methylene)-2-((3,4,5-trimethoxyphenyl)amino)thiazol-4(5H)-one]
IC50 ([1]; A 172, A172 24 h): > 20 µM
IC50 ([1]; A 172, A172 48 h): > 20 µM
IC50 ([2]; C8-D1A 24 h): 12.9 ± 0.24 µM
IC50 ([2]; C8-D1A 48 h): 7.42 ± 2.33 µM
IC50 ([3]; DLD-1 24 h): > 20 µM
IC50 ([3]; DLD-1 48 h): > 20 µM
IC50 ([4]; MDA-MB-231 24 h): > 20 µM
IC50 ([4]; MDA-MB-231 48 h): > 20 µM
IC50 ([4]; MDA-MB-231 72 h): > 20 µM
IC50 ([5]; MCF-10A 24 h): > 20 µM
IC50 ([5]; MCF-10A 48 h): 7.24 ± 0.29 µM
IC50 ([5]; MCF-10A 72 h): 6.66 ± 0.67 µM
IC50 ([6]; MCF7, MCF-7 24 h): > 20 µM
IC50 ([6]; MCF7, MCF-7 48 h): 4.51 ± 0.04 µM
IC50 ([6]; MCF7, MCF-7 72 h): 2.24 ± 0.07 µM
IC50 ([7]; AGS 24 h): > 20 µM
IC50 ([7]; AGS 48 h): 4.59 ± 0.42 µM
IC50 ([8]; HT-29 24 h): > 20 µM
IC50 ([8]; HT-29 48 h): 7.77 ± 0.91 µM
IC50 ([9]; HDFa 24 h): > 20 µM
IC50 ([9]; HDFa 48 h): > 20 µM
IC50 ([9]; HDFa 72 h): > 20 µM
IC50 ([10]; T98G 24 h): 16.9 ± 1.58 µM
IC50 ([10]; T98G 48 h): > 20 µM
